The results in this text go back to patent US9637485B2, “6,7-dihydrobenzo[a]quinolizin-2-one derivatives for the treatment and prophylaxis of hepatitis B virus infection” (Hoffmann-La Roche Inc., priority 2014, dated 2017).

In the experiment the test system is HBsAg. Kind of experiment: HBsAg assay (CLIA of secreted HBsAg in HepG2.2.15 culture supernatant). In kind it is cell-based, HBV. The protocol: HepG2.2.15 cells (Acs et al. Proc Natl Acad Sci USA, 84, (1987), 4641-4), a constitutively HBV-expressing cell line were cultured in DMEM+Glutamax-I medium (Invitrogen, Carlsbad, Calif., USA, Catalog number: 11320082), supplemented with 10% fetal bovine serum (Invitrogen, Catalog number: 10099141) and G418 (Invitrogen, Catalog number: 10131027) at a final concentration of 200 mg/L and maintained in 5% CO2 at 37° C.
HepG2.2.15 cells were seeded in duplicate into white, 96-well plates at 1.5×10^4 cells/well. The cells were treated with a three-fold serial dilution series of the compounds in DMSO. The final DMSO concentration in all wells was 1% and DMSO was used as no drug control.
The HBsAg chemiluminescence immunoassay (CLIA) kit (Autobio Diagnostics Co., Zhengzhou, China, Catalog number: CL0310-2) was used to measure the levels of secreted HBV antigens semi-quantitatively. For the detection 50 μL/well culture supernatant was used and HBsAg was quantified using HBsAg chemiluminescence immunoassay (CLIA) kit (Autobio Diagnostics Co., Zhengzhou, China, Catalog number: CL0310-2), 50 μl of the supernatant was transferred to the CLIA assay plate and 50 μL of enzyme conjugate reagent was added into each well. The plates were sealed and gently agitated for 1 hour at room temperature. The supernatant-enzyme-mixture was discarded and wells were washed 6 times with 300 μL of PBS. The residual liquid was removed by plating the CLIA plate right side down on absorbent tissue paper. 25 μL of substrates A and B were added to each well. Luminance was measured using a luminometer (Mithras LB 940 Multimode Microplate Reader) after 10 minutes incubation. Dose-response curves were generated and the IC50 value was extrapolated by using the E-WorkBook Suite (ID Business Solutions Ltd., Guildford, UK). The IC50 was defined as the compound concentration (or conditioned media log dilution) at which HBsAg secretion was reduced by 50% compared to the no drug control.

[1] abbreviates: Hepatitis B virus, HepG2.2.15, read-out: IC50 (HBsAg secretion reduced by 50% compared to the no drug control), HepG2.2.15 cells, culture supernatant, HBsAg CLIA.
Where [2] appears, read: read-out: IC50 (HBsAg secretion reduced by 50% compared to the no drug control), HepG2.2.15 cells, culture supernatant, HBsAg CLIA.

Where two headings read alike, the source gives them in different places.

As for `COCCCOc1cc2c(cc1OC)-c1cc(=O)c(C(=O)O)cn1C(C(C)(C)CO)C2` (racemic) [Example 24, 6-(2-Hydroxy-1,1-dimethyl-ethyl)-10-methoxy-9-(3-methoxypropoxy)-2-oxo-6,7-dihydrobenzo[a]quinolizine-3-carboxylic acid], under setting [1], the IC50 is 5 nM.

As to `COCCCOc1cc2c(cc1OC)-c1cc(=O)c(C(=O)O)cn1C(C(C)(C)COC)C2` (racemic) [Example 27, 10-Methoxy-6-(2-methoxy-1,1-dimethyl-ethyl)-9-(3-methoxypropoxy)-2-oxo-6,7-dihydrobenzo[a]quinolizine-3-carboxylic acid], the half-maximal inhibitory concentration (IC50) under setting [1] worked out at 5 nM.

Consider `COCCCOc1cc2c(cc1Cl)-c1cc(=O)c(C(=O)O)cn1C(C(C)(C)COC)C2` (racemic) [Example 30, 10-Chloro-6-(2-methoxy-1,1-dimethyl-ethyl)-9-(3-methoxypropoxy)-2-oxo-6,7-dihydrobenzo[a]quinolizine-3-carboxylic acid], for which the IC50 under setting [1] was determined as 4 nM.

For the compound `COCCCOc1cc2c(cc1OC)-c1cc(=O)c(C(=O)O)cn1[C@H](C(C)(C)O)C2` (single isomer, unassigned) [Example 21, (+)-6-(1-Hydroxy-1-methyl-ethyl)-10-methoxy-9-(3-methoxypropoxy)-2-oxo-6,7-dihydrobenzo[a]quinolizine-3-carboxylic acid], the half-maximal inhibitory concentration (IC50) under setting [2] is 41 nM.

As for `COCCCOc1cc2c(cc1OC)-c1cc(=O)c(C(=O)O)cn1C(C(C)(C)O)C2` (single isomer, unassigned) [Example 22, (−)-6-(1-hydroxy-1-methyl-ethyl)-10-methoxy-9-(3-methoxypropoxy)-2-oxo-6,7-dihydrobenzo[a]quinolizine-3-carboxylic acid], under setting [2], the concentration for half-maximal inhibition (IC50) was 4020 nM.

With `COCCCOc1cc2c(cc1OC)-c1cc(=O)c(C(=O)O)cn1C(C(C)(C)CO)C2` (single isomer, unassigned) [Example 26, (−)-6-(2-hydroxy-1,1-dimethyl-ethyl)-10-methoxy-9-(3-methoxypropoxy)-2-oxo-6,7-dihydrobenzo[a]quinolizine-3-carboxylic acid], under setting [2], the concentration for half-maximal inhibition (IC50) is 84 nM.

On to `COCCCOc1cc2c(cc1OC)-c1cc(=O)c(C(=O)O)cn1[C@H](C(C)(C)COC)C2` (single isomer, unassigned) [Example 29, (−)-10-methoxy-6-(2-methoxy-1,1-dimethyl-ethyl)-9-(3-methoxypropoxy)-2-oxo-6,7-dihydrobenzo[a]quinolizine-3-carboxylic acid], for which, under setting [2], the IC50 came to 396 nM.

For the compound `COCCCOc1cc2c(cc1Cl)-c1cc(=O)c(C(=O)O)cn1C(C(C)(C)COC)C2` (single isomer, unassigned) [Example 31, (+)-10-Chloro-6-(2-methoxy-1,1-dimethyl-ethyl)-9-(3-methoxypropoxy)-2-oxo-6,7-dihydrobenzo[a]quinolizine-3-carboxylic acid], the concentration for half-maximal inhibition (IC50) under setting [2] turned out to be 3 nM.

Turning to `COCCCOc1cc2c(cc1Cl)-c1cc(=O)c(C(=O)O)cn1C(C(C)(C)COC)C2` (single isomer, unassigned) [Example 32, (−)-10-chloro-6-(2-methoxy-1,1-dimethyl-ethyl)-9-(3-methoxypropoxy)-2-oxo-6,7-dihydrobenzo[a]quinolizine-3-carboxylic acid], the IC50 under setting [2] worked out at 8270 nM.

As for `COCC(C)(C)C1Cc2cc(OCc3ccccc3)c(OC)cc2-c2cc(=O)c(C(=O)O)cn21` (stereo not shown) [Example 1, 9-Benzyloxy-10-methoxy-6-(2-methoxy-1,1-dimethyl-ethyl)-2-oxo-6,7-dihydrobenzo[a]quinolizine-3-carboxylic acid], the 50% inhibitory concentration (IC50) under setting [1] stood at 7 nM.

For `COCC(C)(C)C1Cc2cc(OC)c(OC)cc2-c2cc(=O)c(C(=O)O)cn21` (stereo not shown) [Example 2, 9,10-Dimethoxy-6-(2-methoxy-1,1-dimethyl-ethyl)-2-oxo-6,7-dihydrobenzo[a]quinolizine-3-carboxylic acid], under setting [1], the half-inhibitory concentration (IC50) worked out at 34 nM.

With `COCC(C)(C)C1Cc2cc(OCC(F)(F)F)c(OC)cc2-c2cc(=O)c(C(=O)O)cn21` (stereo not shown) [Example 3, 10-Methoxy-6-(2-methoxy-1,1-dimethyl-ethyl)-2-oxo-9-(2,2,2-trifluoroethoxy)-6,7-dihydrobenzo[a]quinolizine-3-carboxylic acid], the half-maximal inhibitory concentration (IC50) under setting [1] was 9 nM.

`COCC(C)(C)C1Cc2cc(OCCCN3CCOCC3)c(OC)cc2-c2cc(=O)c(C(=O)O)cn21` (stereo not shown) [Example 4, 10-Methoxy-6-(2-methoxy-1,1-dimethyl-ethyl)-9-(3-morpholinopropoxy)-2-oxo-6,7-dihydrobenzo[a]quinolizine-3-carboxylic acid]: the half-maximal inhibitory concentration (IC50) under setting [1] came out at 14 nM.

For `COCC(C)(C)C1Cc2cc(OCCCCCCO)c(OC)cc2-c2cc(=O)c(C(=O)O)cn21` (stereo not shown) [Example 5, 9-(6-Hydroxyhexoxy)-10-methoxy-6-(2-methoxy-1,1-dimethyl-ethyl)-2-oxo-6,7-dihydrobenzo[a]quinolizine-3-carboxylic acid], the half-inhibitory concentration (IC50) under setting [1] came to 6 nM.

As for `COCC(C)(C)C1Cc2cc(OCCCO)c(OC)cc2-c2cc(=O)c(C(=O)O)cn21` (stereo not shown) [Example 6, 9-(3-Hydroxypropoxy)-10-methoxy-6-(2-methoxy-1,1-dimethyl-ethyl)-2-oxo-6,7-dihydrobenzo[a]quinolizine-3-carboxylic acid], the IC50 under setting [1] amounted to 22 nM.

For `COCC(C)(C)C1Cc2cc(OCC(C)(C)CO)c(OC)cc2-c2cc(=O)c(C(=O)O)cn21` (stereo not shown) [Example 7, 9-(3-Hydroxy-2,2-dimethyl-propoxy)-10-methoxy-6-(2-methoxy-1,1-dimethyl-ethyl)-2-oxo-6,7-dihydrobenzo[a]quinolizine-3-carboxylic acid], under setting [1], the IC50 amounted to 9 nM.

For the compound `CCOCCOc1cc2c(cc1OC)-c1cc(=O)c(C(=O)O)cn1C(C(C)(C)COC)C2` (stereo not shown) [Example 8, 9-(2-Ethoxyethoxy)-10-methoxy-6-(2-methoxy-1,1-dimethyl-ethyl)-2-oxo-6,7-dihydrobenzo[a]quinolizine-3-carboxylic acid], the IC50 under setting [1] was 12 nM.

Turning to `COCC(C)(C)C1Cc2cc(OCC3CC3)c(OC)cc2-c2cc(=O)c(C(=O)O)cn21` (stereo not shown) [Example 9, 9-(Cyclopropylmethoxy)-10-methoxy-6-(2-methoxy-1,1-dimethyl-ethyl)-2-oxo-6,7-dihydrobenzo[a]quinolizine-3-carboxylic acid], the IC50 under setting [1] was found to be 4 nM.

Regarding `COCC(C)(C)C1Cc2cc(OCCCSC)c(OC)cc2-c2cc(=O)c(C(=O)O)cn21` (stereo not shown) [Example 10, 10-Methoxy-6-(2-methoxy-1,1-dimethyl-ethyl)-9-(3-methylsulfanylpropoxy)-2-oxo-6,7-dihydrobenzo[a]quinolizine-3-carboxylic acid], under setting [1], the IC50 came out at 6 nM.

Take `COCC(C)(C)C1Cc2cc(OCCCN3CCCC3)c(OC)cc2-c2cc(=O)c(C(=O)O)cn21` (stereo not shown) [Example 11, 10-Methoxy-6-(2-methoxy-1,1-dimethyl-ethyl)-2-oxo-9-(3-pyrrolidin-1-ylpropoxy)-6,7-dihydrobenzo[a]quinolizine-3-carboxylic acid]: the half-maximal inhibitory concentration (IC50) under setting [1] came to 519 nM.

As to `COCC(C)(C)C1Cc2cc(OCCCN3CCCC3=O)c(OC)cc2-c2cc(=O)c(C(=O)O)cn21` (stereo not shown) [Example 12, 10-Methoxy-6-(2-methoxy-1,1-dimethyl-ethyl)-2-oxo-9-[3-(2-oxopyrrolidin-1-yl)propoxy]-6,7-dihydrobenzo[a]quinolizine-3-carboxylic acid], the IC50 under setting [1] worked out at 190 nM.

For `COCC(C)(C)C1Cc2cc(OCCCN(C)C)c(OC)cc2-c2cc(=O)c(C(=O)O)cn21` (stereo not shown) [Example 13, 9-[3-(Dimethylamino)propoxy]-10-methoxy-6-(2-methoxy-1,1-dimethyl-ethyl)-2-oxo-6,7-dihydrobenzo[a]quinolizine-3-carboxylic acid], under setting [1], the IC50 was 579 nM.

As to `COCC(C)(C)C1Cc2cc(OCCCCCCNC(=O)OC(C)(C)C)c(OC)cc2-c2cc(=O)c(C(=O)O)cn21` (stereo not shown) [Example 14, 9-[6-(tert-Butoxycarbonylamino)hexoxy]-10-methoxy-6-(2-methoxy-1,1-dimethyl-ethyl)-2-oxo-6,7-dihydrobenzo[a]quinolizine-3-carboxylic acid], the half-maximal inhibitory concentration (IC50) under setting [1] amounted to 3 nM.

With `COCC(C)(C)C1Cc2cc(OCCCS(C)(=O)=O)c(OC)cc2-c2cc(=O)c(C(=O)O)cn21` (stereo not shown) [Example 15, 10-Methoxy-6-(2-methoxy-1,1-dimethyl-ethyl)-9-(3-methylsulfonylpropoxy)-2-oxo-6,7-dihydrobenzo[a]quinolizine-3-carboxylic acid], the half-maximal inhibitory concentration (IC50) under setting [1] was 124 nM.

As for `COCC(C)(C)C1Cc2cc(OCCCCCCN)c(OC)cc2-c2cc(=O)c(C(=O)O)cn21` (stereo not shown) [Example 16, 9-(6-Aminohexoxy)-10-methoxy-6-(2-methoxy-1,1-dimethyl-ethyl)-2-oxo-6,7-dihydrobenzo[a]quinolizine-3-carboxylic acid], the 50% inhibitory concentration (IC50) under setting [1] was determined as 68 nM.

In general, IC50 refers to the concentration at which inhibition is half-maximal.
